Measured values as given in patent EP0019524A1, “Process for preparing flavilium derivatives, products obtained by the processus and their therapeutical application” (SOCIETE DE RECHERCHES INDUSTRIELLES SORI, priority 1979, dated 1980).

Key:
patients = assay: Clinical trial in hyperlipidemic and hypertensive patients; type: in vivo; details: 21 days
Procedure: On a résumé enfin les résultats des essais cliniques qui ont été entrepris avec le composé III pendant 21 jours sur 65 patients (30 patients étant hyperlipidiques et les 35 autres patients souffrant d'hypertension artérielle), un lot de patients recevant 3 comprimés ou 3 glossettes par jour renfermant chacun 10 mg de composé III, un autre lot recevant une injection quotidienne de 10 mg de composé III. La tolérance de ce produit s'est révélée excellente puisque la condition de 51 patients (c'est-à-dire 78,4%) a été considérablement améliorée.

[1] = Acute toxicity (LD50), method of Litchfield et al.; details: in vivo, ip; mouse, intraperitoneal route; read-out: DL-50 I.P. souris
Procedure: La toxicité a été déterminée chez la souris par voie intrapéritonéale selon la méthode de J.T. LITCHFIELD et al., J. Pharmacol. Exptl. Therap. (1949), 96, 99. La DL-50 I.P. souris des produits III et IV est de 750 mg/kg. Les produits de formule (I) ne sont donc pas toxiques.

hématies = assay: Erythrocyte deformability: filtration rate of erythrocyte suspension and plasma (Schmid-Schönbein technique) in hyperlipidemic monkeys; type: in vivo, singe; details: monkeys on hyperlipidic diet, 20 mg/kg per os per day for 8 months, mean, 5 µ filter, 50 mm water pressure
Excerpt: La déformabilité des hématies a été mesurée selon la technique de SCHMID-SCHONBEIN et al., Blut (1973), 26, 369-379, par filtration (diamètre des pores du filtre : 5µ) sous une pression constante de 50 mm d'eau, d'une suspension d'hématies amenée à un hématocrite de 10% par dilution dans un plasma autologue. La phase de suspension est également filtrée selon la même technique. On peut apprécier ainsi l'intensité de certaines maladies car le taux de filtration de la suspension d'hématies et/ou de la phase de plasma est modifié par les maladies du métabolisme telles que le diabète et l'hyperlipidémie.
Le taux de filtration des hématies a été déterminé in vivo chez le singe rendu hyperlipidémique après absorption d'un régime gras. Les composés à tester ont été administrés per os à la dose quotidienne de 20 mg/kg pendant 8 mois à des lots de singes : un lot recevant un régime normal, un lot recevant un régime gras, les autres lots recevant le régime gras et un des composés à tester. Les résultats donnés dans le tableau ci-après sont exprimés sous forme d'une moyenne et représentent la vitesse de filtration des hématies ou du plasma en µl/s. La signification statistique des résultats est très bonne (p <( 0,001).

[2] = of 65 patients (30 hyperlipidemic, 35 arterial hypertension), 3 x 10 mg oral/sublingual or 10 mg injection per day

C[C@@H]1O[C@@H](OC[C@H]2O[C@@H](Oc3cc4c(O)cc(O)cc4[o+]c3-c3ccc(O)c(O)c3)[C@H](O)[C@@H](O)[C@@H]2O)[C@H](O)[C@H](O)[C@H]1O [composé III, chlorurede 3-[6-0-(6-désoxy-α-L-mannopyranosyl)-β-D-glucopy-ranosyloxy]-3',4',5,7-tétrahydroxy-flavylium]
tolérance (patients; 65 patients, 3 tablets or sublingual tablets of 10 mg per day, or one daily injection of 10 mg): excellente | patients dont la condition a été considérablement améliorée (patients; [2]): 78,4% | patients dont la condition a été considérablement améliorée (nombre) (patients; [2]): 51 patients | LD50 [1]: 750 mg/kg | Vitesse de filtration du plasma (hématies): 55,92 ± 4,78 µl/s | Vitesse de filtration des hématies (hématies; hematocrit 10%): 43,97 ± 2,30 µl/s

COc1cc(OC)c2cc(O[C@@H]3O[C@H](CO[C@@H]4O[C@@H](C)[C@H](O)[C@@H](O)[C@H]4O)[C@@H](O)[C@H](O)[C@H]3O)c(-c3ccc(OC)c(OC)c3)[o+]c2c1 [composé IV, chlorurede 3-[6-0-(6-désoxy-α-L-mannopyranosyl)-β-D-glucopyranosyloxy]-3',4', 5,7-tétraméthoxy-flavylium]
LD50 [1]: 750 mg/kg
